Source: paper PMC11191402, “High-Affinity NIR-Fluorescent Inhibitors for Tumor Imaging via Carbonic Anhydrase IX” (Bioconjugate Chemistry, 2024)

What was measured:
[1] = target: T1, CAIX expressed on cell membranes of HeLa cells (Homo sapiens, UniProt Q16790); test: Fluorescence microscopy staining of live HeLa cells; assay type: cell-based; settings: 250 nM compound; pCMV-CAIX-transfected cells, normoxia
T1 construct: an open reading frame for the full-length CAIX protein (1–459 amino acids) without a tag; expressed in transfected cells; host or cells: HeLa cells transfected with pCMV-CAIX (TurboFect), normoxia
Excerpt: Live HeLa cell culture was used for visualization of the NIR-fluorescent compound binding to CAIX expressed on cell membranes (Figures 3 and S2). […] Hypoxic conditions were insufficient for CAIX-specific fluorescence detection (Figure S3). Transfected cells expressed 10-fold more CAIX protein than cells grown under hypoxia, as determined by dosing the fluorescein-containing compound GZ19-32. […] We should point out that microphotographs in Figures 3 and S2 were taken at different exposure times to ensure good visualization quality. Nevertheless, all four compounds were suitable for direct visualization of CAIX expressed on transfected cell membranes.
For visualization of CAIX in live cells, HeLa cells were seeded in 12-well plates, and the next day they were transfected with the pCMV-CAIX plasmid to induce CAIX expression under normoxia. The TurboFect Transfection Reagent (Thermo Fisher) was used for this purpose according to manufacturer’s directions. Cells were stained and visualized next day after transfection. Nontransfected cells, grown under normoxia, were used as a control. For the induction of CAIX expression without transfection, cells were cultured under hypoxia for 3 days.
For cell imaging, live cells were incubated with the recombinant monoclonal antibody to CAIX (M75) (Absolute Antibody, #Ab00414–1.1) in the CO2 incubator for 30 min. The antibody stock solution (1 mg/mL) was used at a dilution of 1:150 in FluoroBright (FB)(Thermo Fisher) medium. After washing (3 × 5 min with DMEM in RT, gentle rock), cells were incubated with secondary Alexa Fluor 488 goat antimouse antibodies (2 mg/mL, Thermo Fisher), at a dilution of 1:200 in FB, in a CO2 incubator for 30 min. After washing (3 × 5 min with DMEM in RT and 2 × 1 min with PBS), cells were incubated with NIR-fluorescent inhibitors ([…] in PBS) in a CO2 incubator for 5–8 min. After washing (2 min + 2 × 1 min with PBS), PBS was replaced by FB, and 15 μL of NucBlue Live Cell Stain ReadyProbes reagent (Thermo Fisher) was added per well. After 5 min, cells were observed and photographed using an automated fluorescence microscope EVOS FL Auto (Thermo Fisher).

human recombinant CAIV = target: T2, human recombinant CAIV (Homo sapiens, UniProt P22748); design: method as in PMID 36271018; settings: FTSA, 37 °C, pH 7.0; cited from earlier work
T2 construct: Most isozymes were truncated, and only the catalytic domains of the proteins were produced; made in house; host or cells: bacterial expression system

human recombinant CAXII = target: T3, human recombinant CAXII (Homo sapiens, UniProt O43570); design: method as in PMID 36271018; settings: FTSA, 37 °C, pH 7.0; cited from earlier work
T3 construct: Most isozymes were truncated, and only the catalytic domains of the proteins were produced; made in house; host or cells: bacterial expression system

human recombinant CAVA = target: T4, human recombinant CAVA (Homo sapiens, UniProt P35218); design: method as in PMID 36271018; settings: FTSA, 37 °C, pH 7.0; cited from earlier work
T4 construct: Most isozymes were truncated, and only the catalytic domains of the proteins were produced; made in house; host or cells: bacterial expression system

human recombinant CAXIV = target: T5, human recombinant CAXIV (Homo sapiens, UniProt Q9ULX7); design: method as in PMID 36271018; settings: FTSA, 37 °C, pH 7.0; cited from earlier work
T5 construct: Most isozymes were truncated, and only the catalytic domains of the proteins were produced; made in house; host or cells: bacterial expression system

human recombinant CAIII = target: T6, human recombinant CAIII (Homo sapiens, UniProt P07451); design: method as in PMID 36271018; settings: FTSA, 37 °C, pH 7.0; cited from earlier work
T6 construct: made in house; host or cells: bacterial expression system

human recombinant CAII = target: T7, human recombinant CAII (Homo sapiens, UniProt P00918); design: method as in PMID 36271018; settings: FTSA, 37 °C, pH 7.0; cited from earlier work
T7 construct: made in house; host or cells: bacterial expression system

human recombinant CAVB = target: T8, human recombinant CAVB (Homo sapiens, UniProt Q9Y2D0); design: method as in PMID 36271018; settings: FTSA, 37 °C, pH 7.0; cited from earlier work
T8 construct: Most isozymes were truncated, and only the catalytic domains of the proteins were produced; made in house; host or cells: bacterial expression system

human recombinant CAVII = target: T9, human recombinant CAVII (Homo sapiens, UniProt P43166); design: method as in PMID 36271018; settings: FTSA, 37 °C, pH 7.0; cited from earlier work
T9 construct: made in house; host or cells: bacterial expression system

human recombinant CAVI = target: T10, human recombinant CAVI (Homo sapiens, UniProt P23280); design: method as in PMID 36271018; settings: FTSA, 37 °C, pH 7.0; cited from earlier work
T10 construct: Most isozymes were truncated, and only the catalytic domains of the proteins were produced; made in house; host or cells: bacterial expression system
T10 sequence (P23280 21-278 limits assumed): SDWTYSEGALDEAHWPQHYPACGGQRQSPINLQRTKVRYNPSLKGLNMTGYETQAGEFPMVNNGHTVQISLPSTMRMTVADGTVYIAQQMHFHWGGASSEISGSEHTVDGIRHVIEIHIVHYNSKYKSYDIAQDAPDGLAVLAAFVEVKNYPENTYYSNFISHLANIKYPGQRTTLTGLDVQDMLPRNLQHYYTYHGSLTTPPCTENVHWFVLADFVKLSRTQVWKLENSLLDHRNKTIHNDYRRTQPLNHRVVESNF

T8 sequence (Q9Y2D0 37-296 limits assumed): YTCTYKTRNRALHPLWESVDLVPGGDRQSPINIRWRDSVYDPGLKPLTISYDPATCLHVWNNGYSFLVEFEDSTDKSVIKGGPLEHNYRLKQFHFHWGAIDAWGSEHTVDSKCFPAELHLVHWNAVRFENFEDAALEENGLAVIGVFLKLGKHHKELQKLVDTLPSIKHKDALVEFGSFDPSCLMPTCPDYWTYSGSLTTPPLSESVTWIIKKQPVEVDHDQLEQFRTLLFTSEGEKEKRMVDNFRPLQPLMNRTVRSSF
T5 sequence (Q9ULX7 20-278 limits assumed): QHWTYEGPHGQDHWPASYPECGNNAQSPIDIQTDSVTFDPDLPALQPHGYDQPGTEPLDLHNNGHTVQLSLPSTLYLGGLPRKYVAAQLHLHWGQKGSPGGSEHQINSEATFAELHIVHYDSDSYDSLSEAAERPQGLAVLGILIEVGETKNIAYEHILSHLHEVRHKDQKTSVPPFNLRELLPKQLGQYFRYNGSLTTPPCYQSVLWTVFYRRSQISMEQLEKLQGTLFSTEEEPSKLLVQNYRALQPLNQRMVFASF
T9 sequence (P43166 whole entry): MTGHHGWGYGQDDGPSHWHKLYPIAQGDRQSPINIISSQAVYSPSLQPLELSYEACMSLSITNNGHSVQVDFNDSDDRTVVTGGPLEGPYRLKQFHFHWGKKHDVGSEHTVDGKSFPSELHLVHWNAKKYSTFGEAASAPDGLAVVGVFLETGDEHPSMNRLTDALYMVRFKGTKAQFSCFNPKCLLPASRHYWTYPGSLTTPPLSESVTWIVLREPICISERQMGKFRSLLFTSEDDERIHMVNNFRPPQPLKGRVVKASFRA
T2 sequence (P22748 21-285 limits assumed): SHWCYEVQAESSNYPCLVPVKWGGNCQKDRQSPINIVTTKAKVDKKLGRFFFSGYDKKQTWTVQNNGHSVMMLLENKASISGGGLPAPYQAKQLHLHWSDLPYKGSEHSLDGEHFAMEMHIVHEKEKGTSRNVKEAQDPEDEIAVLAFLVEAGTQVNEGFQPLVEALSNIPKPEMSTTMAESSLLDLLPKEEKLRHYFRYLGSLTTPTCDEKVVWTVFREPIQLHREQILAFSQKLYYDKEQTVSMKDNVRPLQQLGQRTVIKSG
T6 sequence (P07451 whole entry): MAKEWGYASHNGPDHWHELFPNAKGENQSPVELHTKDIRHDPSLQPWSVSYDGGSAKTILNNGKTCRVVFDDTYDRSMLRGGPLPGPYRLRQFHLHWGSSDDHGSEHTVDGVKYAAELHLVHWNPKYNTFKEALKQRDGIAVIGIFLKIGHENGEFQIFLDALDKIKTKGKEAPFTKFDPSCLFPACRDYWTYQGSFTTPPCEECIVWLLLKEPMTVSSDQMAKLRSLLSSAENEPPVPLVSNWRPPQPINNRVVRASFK
T4 sequence (P35218 39-296 limits assumed): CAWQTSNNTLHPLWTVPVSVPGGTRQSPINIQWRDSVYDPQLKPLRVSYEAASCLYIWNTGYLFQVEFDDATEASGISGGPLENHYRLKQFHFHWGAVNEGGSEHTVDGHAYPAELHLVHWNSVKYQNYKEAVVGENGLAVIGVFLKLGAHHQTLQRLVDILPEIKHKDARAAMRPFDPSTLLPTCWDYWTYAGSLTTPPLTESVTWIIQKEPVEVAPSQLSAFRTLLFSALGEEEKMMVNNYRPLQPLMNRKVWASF
T3 sequence (O43570 30-289 limits assumed): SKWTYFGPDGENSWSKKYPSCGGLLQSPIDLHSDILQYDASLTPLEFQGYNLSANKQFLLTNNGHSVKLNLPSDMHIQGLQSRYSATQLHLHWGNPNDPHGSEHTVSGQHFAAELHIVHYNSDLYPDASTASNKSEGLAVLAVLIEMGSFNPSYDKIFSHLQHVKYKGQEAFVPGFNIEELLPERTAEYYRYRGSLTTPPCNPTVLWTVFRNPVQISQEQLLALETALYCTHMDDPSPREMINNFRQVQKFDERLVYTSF

Row | melting point [°C] | staining of HeLa cells (NIR fluorescence microscopy) [1] | SMILES | Kd (human recombinant CAIV) [µM] | Kd (human recombinant CAXII) [µM] | Kd (human recombinant CAVA) [µM] | Kd (human recombinant CAXIV) [µM] | Kd (human recombinant CAIII) [µM] | Kd (human recombinant CAII) [µM] | Kd (human recombinant CAVB) [µM] | Kd (human recombinant CAVII) [µM] | Kd (human recombinant CAVI) [µM]
1 | 225 to 228 | no visual response on transfected cells | CC1(C)C(/C=C/C2=C(Oc3ccc(CCC(=O)O)cc3)C(=C/C=C3\N(CCCCS(=O)(=O)[O-])c4ccccc4C3(C)C)/CCC2)=[N+](CCCCS(=O)(=O)[O-])c2ccccc21.[Na+] [GZ21-20, Sodium 4-((Z)-2-((E)-2-(2-(4-(2-Carboxyethyl)phenoxy)-3-((E)-2-(3,3-dimethyl-1-(4-sulfonatobutyl)-3H-indol-1-ium-2-yl)vinyl)cyclohex-2-en-1-ylidene)ethylidene)-3,3-dimethylindolin-1-yl)butane-1-sulfonate] |  |  |  |  |  |  |  |  | 
2 | 143 to 144 |  | NS(=O)(=O)c1c(F)c(F)c(S(=O)(=O)CCC(=O)O)c(NC2CCCCCCC2)c1F [GZ18-23, 3-((2-(Cyclooctylamino)-3,5,6-trifluoro-4-sulfamoylphenyl)sulfonyl)propanoic Acid] | 0.1 | 0.0014 | 10 | 0.003 | ≥ 200 | 0.2 | 0.2 | 0.04 | 0.1
